Assay results as given in DBAASP.
Values after ≈ are worked out from the molar mass of the structure shown. Values joined by “and” are separate entries in the source; they are usually repeats but may differ in a detail not shown here. Equal entries are not always repeated.

Experiments:
Assay in all cases: ≥ marks a high value that may be exact or a test limit, other limits are often not marked, values filed in µg/mL are converted to µM
[1] = tested on: Enterobacter cloacae 6780
Escherichia coli 170 = tested on: Escherichia coli 170
Acinetobacter baumannii = tested on: Acinetobacter baumannii
[2] = tested on: Klebsiella pneumoniae 913
[3] = tested on: Enterobacter cloacae 2524
[4] = tested on: Escherichia coli ATCC 25922
Salmonella typhimurium = tested on: Salmonella typhimurium
[5] = tested on: Klebsiella pneumoniae 1625
[6] = tested on: Streptococcus pneumoniae ATCC 49619
Escherichia coli 4530 = tested on: Escherichia coli 4530
[7] = tested on: Pseudomonas aeruginosa 4677
[8] = tested on: Staphylococcus aureus CCRC 12652
Salmonella enterica = tested on: Salmonella enterica
[9] = tested on: Pseudomonas aeruginosa ATCC 27853
Escherichia coli BL21 = tested on: Escherichia coli BL21
Escherichia coli PFH12 = tested on: Escherichia coli PFH12
Escherichia coli PFL6 = tested on: Escherichia coli PFL6
[10] = tested on: Streptococcus alactolyticus
[11] = tested on: Staphylococcus aureus ATCC 25923
[12] = tested on: Vibrio parahaemolyticus CCRC 10806
Escherichia coli PFH13 = tested on: Escherichia coli PFH13
[13] = tested on: Klebsiella pneumoniae CCRC 10694
[14] = tested on: Salmonella enterica subsp. enterica serovar Enteritidis ATCC 13076
[15] = tested on: Candida albicans ATCC 10231
[16] = tested on: Listeria monocytogenes ATCC 15313
Staphylococcus xylosus = tested on: Staphylococcus xylosus
[17] = tested on: Staphylococcus aureus CCRC 15211
Pseudomonas aeruginosa = tested on: Pseudomonas aeruginosa
[18] = tested on: Enterococcus faecalis ATCC 29212
Escherichia coli PFH1 = tested on: Escherichia coli PFH1
Escherichia coli JM109 = tested on: Escherichia coli JM109
[19] = tested on: Bacillus cereus ATCC 11778
[20] = tested on: Salmonella typhimurium CCRC 12947
Citrobacter koseri = tested on: Citrobacter koseri
[21] = tested on: Staphylococcus aureus ATCC 43300
[22] = tested on: Klebsiella pneumoniae ATCC 13883
[23] = tested on: Listeria monocytogenes ATCC 19115
[24] = tested on: Staphylococcus aureus ATCC BAA-39
[25] = tested on: Candida albicans ATCC 37092
[26] = tested on: Staphylococcus aureus ATCC 29213
Escherichia coli 363 = tested on: Escherichia coli 363
Staphylococcus aureus = tested on: Staphylococcus aureus
Escherichia coli E423-17 = tested on: Escherichia coli E423-17
[27] = tested on: Klebsiella pneumoniae E406-17
[28] = tested on: Pseudomonas aeruginosa E411-17
[29] = tested on: Acinetobacter baumannii B28-16
[30] = tested on: Staphylococcus aureus USA 300

For `CC[C@H](C)[C@H](NC(=O)CN)C(=O)N[C@@H](CC(C)C)C(=O)N[C@@H](CC(N)=O)C(=O)N[C@H](C(=O)N[C@H](C(=O)N[C@@H](CCCCN)C(=O)N[C@@H](CO)C(=O)N[C@H](C(=O)N[C@@H](C)C(=O)N[C@@H](CO)C(=O)N[C@@H](CCCCN)C(=O)N[C@@H](CC(C)C)C(=O)N[C@@H](CCCCN)C(=O)N[C@@H](CCCN=C(N)N)C(=O)N[C@@H](CCCCN)C(=O)N[C@@H](C)C(=O)N[C@@H](CCCCN)C(=O)O)[C@@H](C)CC)[C@@H](C)CC)[C@@H](C)O` [GILNTIKSIASKLKRKAK], the MIC [1] was 3.12 µM (≈ 6.14 µg/mL), the MIC (Escherichia coli 170) was 1.56 µM (≈ 3.07 µg/mL) and the MIC (Acinetobacter baumannii) was 2.21 µM (≈ 4.35 µg/mL). It also gave an MIC [2] of 6.25 µM (≈ 12.3 µg/mL), an MIC [3] of no less than 50 µM and an MIC [4] of 1.56 µM (≈ 3.07 µg/mL). The MIC (Salmonella typhimurium) was 4.38 µM (≈ 8.63 µg/mL), the MIC [5] was 3.12 µM (≈ 6.14 µg/mL) and the MIC [6] was no less than 50 µM. The MIC (Escherichia coli 4530) was no less than 50 µM and the MIC [7] was no less than 50 µM.
`CC[C@H](C)[C@H](N)C(=O)N[C@@H](CC(N)=O)C(=O)N[C@@H](CC(C)C)C(=O)N[C@@H](CCCCN)C(=O)N[C@@H](C)C(=O)N[C@H](C(=O)N[C@@H](C)C(=O)N[C@@H](C)C(=O)N[C@@H](CC(C)C)C(=O)N[C@@H](C)C(=O)N[C@@H](CCCCN)C(=O)N[C@@H](CCCCN)C(=O)N[C@@H](CC(C)C)C(=O)N[C@@H](Cc1ccccc1)C(N)=O)[C@@H](C)CC` [INLKAIAALAKKLF] gave an MIC [8] of 10.6 µM (≈ 16 µg/mL), an MIC (Salmonella enterica) of 10.6 µM (≈ 16 µg/mL) and an MIC [9] of no less than 32 µM. It also gave an MIC (Escherichia coli BL21) of 2.64 µM (≈ 4 µg/mL), an MIC (Escherichia coli PFH12) of 3.74 µM (≈ 5.65 µg/mL) and an MIC (Escherichia coli PFL6) of 5.28 µM (≈ 7.99 µg/mL). For the same compound, the MIC [10] was 5.28 µM (≈ 7.99 µg/mL), the MIC [11] was 4 µM (≈ 6.05 µg/mL) and the MIC [12] was 10.6 µM (≈ 16 µg/mL). It also gave an MIC (Escherichia coli PFH13) of 3.74 µM (≈ 5.65 µg/mL), an MIC [13] of 21.1 µM (≈ 32 µg/mL) and an MIC [14] of 4 µM (≈ 6.05 µg/mL). It also gave an MIC [15] of 4 µM (≈ 6.05 µg/mL), an MIC [16] of 4 µM (≈ 6.05 µg/mL) and an MIC (Staphylococcus xylosus) of 0.991 µM (≈ 1.5 µg/mL). The MIC [17] was 21.1 µM (≈ 32 µg/mL), the MIC (Pseudomonas aeruginosa) was 63.4 µM (≈ 95.9 µg/mL) and the MIC [18] was no less than 32 µM. For the same compound, the MIC (Escherichia coli PFH1) was 3.74 µM (≈ 5.65 µg/mL), the MIC (Escherichia coli JM109) was 5.28 µM (≈ 7.99 µg/mL) and the MIC [19] was 8 µM (≈ 12.1 µg/mL). It also gave an MIC [20] of 21.1 µM (≈ 32 µg/mL) and an MIC (Citrobacter koseri) of 2.64 µM (≈ 4 µg/mL).
For `CC[C@H](C)[C@H](NC(=O)[C@H](CCCCN)NC(=O)[C@H](CCCN=C(N)N)NC(=O)[C@H](CC(C)C)NC(=O)[C@H](Cc1ccccc1)NC(=O)[C@H](CCCN=C(N)N)NC(=O)CNC(=O)[C@H](Cc1ccccc1)NC(=O)[C@H](CCCN=C(N)N)NC(=O)CNC(=O)[C@H](CCCN=C(N)N)NC(=O)[C@H](CCC(N)=O)NC(=O)[C@@H](NC(=O)[C@@H](N)CC(C)C)C(C)C)C(=O)N[C@@H](CCCN=C(N)N)C(=O)N[C@@H](CCCN=C(N)N)C(=O)N[C@@H](Cc1ccccc1)C(=O)N[C@@H](CCCN=C(N)N)C(=O)O` [LVQRGRFGRFLRKIRRFR], the MIC [21] was 2 µM (≈ 4.72 µg/mL), the MIC [22] was 2 µM (≈ 4.72 µg/mL) and the MIC [23] was 2 µM (≈ 4.72 µg/mL). For the same compound, the MIC [4] was 4 µM and 5.66 µM, the MIC [11] was 2 µM (≈ 4.72 µg/mL) and the MIC [14] was 2 µM (≈ 4.72 µg/mL). For the same compound, the MIC [24] was 2 µM and 2.83 µM.
`CC[C@H](C)[C@H](NC(=O)[C@@H]1CCCN1C(=O)[C@H](CCCN=C(N)N)NC(=O)[C@@H]1CCCN1C(=O)CNC(=O)[C@@H]1CCCN1C(=O)[C@H](CCCN=C(N)N)NC(=O)[C@@H]1CCCN1C(=O)[C@H](Cc1ccccc1)NC(=O)[C@@H]1CCCN1C(=O)[C@H](CC(C)C)NC(=O)[C@@H]1CCCN1)C(=O)N1CCC[C@H]1C(=O)N[C@@H](CCCN=C(N)N)C(=O)N1CCC[C@H]1C(=O)O` [PLPFPRPGPRPIPRP] was tested, and the MIC [4] was greater than 500 µM, the MIC [25] was 30.5 µM (≈ 51.7 µg/mL) and the MIC [26] was greater than 500 µM.
`CC(C)C[C@H](NC(=O)[C@H](CCCN=C(N)N)NC(=O)[C@H](CCCN=C(N)N)NC(=O)[C@H](CC(C)C)NC(=O)[C@H](CC(C)C)NC(=O)[C@H](CCCN=C(N)N)NC(=O)[C@H](CCCN=C(N)N)NC(=O)[C@H](CC(C)C)NC(=O)[C@H](CC(C)C)NC(=O)[C@H](CCCN=C(N)N)NC(=O)[C@H](CCCN=C(N)N)NC(=O)[C@H](CC(C)C)NC(=O)[C@H](CCCN=C(N)N)NC(=O)[C@@H](N)CCCN=C(N)N)C(=O)N[C@@H](CCCN=C(N)N)C(=O)N[C@@H](CCCN=C(N)N)C(N)=O` [RRLRRLLRRLLRRLRR] showed an MIC (Escherichia coli 363) of no less than 50 µM and an MIC (Staphylococcus aureus) of 9 µM (≈ 20.3 µg/mL).
`NC(=O)[C@H](CCCN=C(N)N)NC(=O)[C@H](Cc1c[nH]c2ccccc12)NC(=O)[C@H](Cc1c[nH]c2ccccc12)NC(=O)[C@H](CCCN=C(N)N)NC(=O)[C@H](Cc1c[nH]c2ccccc12)NC(=O)[C@H](Cc1c[nH]c2ccccc12)NC(=O)[C@H](CCCN=C(N)N)NC(=O)[C@@H](N)CCCN=C(N)N` [RRWWRWWR] gave an MIC (Escherichia coli E423-17) of 8 µM (≈ 11.1 µg/mL), an MIC [9] of 3.6 µM (≈ 5 µg/mL) and an MIC [27] of no less than 32 µM. The MIC [4] was 5.41 µM (≈ 7.49 µg/mL), the MIC [28] was 8 µM (≈ 11.1 µg/mL) and the MIC [11] was 1.8 µM (≈ 2.5 µg/mL). It also gave an MIC [29] of no less than 32 µM and an MIC [30] of 5.66 µM (≈ 7.84 µg/mL).
